Experiment: xn = mol fraction of the nth substance listed

Cc1cccc(O)c1 + c1ccncc1
viscosity [mPa·s], 101 kPa
Conditions	x1 = 0.1071	x1 = 0.2168	x1 = 0.3407	x1 = 0.3927	x1 = 0.4754	x1 = 0.542	x1 = 0.6374	x1 = 0.6973	x1 = 0.8077	x1 = 0.8862
293.15 K	1.228	1.77	2.54	3.085	4.25	5.585	8.16	9.98	13.08	14.81
303.15 K	1.098	1.461	2.125	2.51	3.35	4.175	5.57	6.52	7.885	8.64
313.15 K	0.931	1.24	1.732	2.022	2.605	3.15	3.995	4.565	5.255	5.59

N + O
Conditions	viscosity [mPa·s]
293.15 K, 100 kPa, x1 = 0.1035	1.166
293.15 K, 101 kPa, x1 = 0.0111	1.025
303 K, 100 kPa, x1 = 0.053	0.86
303 K, 100 kPa, x1 = 0.105	0.92
303 K, 100 kPa, x1 = 0.157	0.97
303 K, 100 kPa, x1 = 0.209	1
303.15 K, 100 kPa, x1 = 0.05336	0.838
303.15 K, 100 kPa, x1 = 0.1035	0.994
313 K, 100 kPa, x1 = 0.053	0.69
313 K, 100 kPa, x1 = 0.105	0.72
313 K, 100 kPa, x1 = 0.157	0.75
313 K, 100 kPa, x1 = 0.209	0.79
313.15 K, 100 kPa, x1 = 0.05336	0.666
313.15 K, 100 kPa, x1 = 0.1035	0.833

C[N+](=O)[O-] + Cc1ccccc1
298.15 K, 101 kPa
Conditions	viscosity [mPa·s]
x1 = 0.1803	0.5448
x1 = 0.3318	0.5368
x1 = 0.4595	0.5331
x1 = 0.5699	0.534
x1 = 0.665	0.542
x1 = 0.7483	0.5534
x1 = 0.8226	0.5683
x1 = 0.888	0.5861
x1 = 0.9472	0.6066

CCCCC(CC)COP(=O)(O)OCC(CC)CCCC (stereo not drawn) + Cc1ccccc1C
viscosity [mPa·s], 101 kPa
Conditions	x1 = 0.1	x1 = 0.2	x1 = 0.398	x1 = 0.606	x1 = 0.796	x1 = 0.9
303.15 K	1.039	2.217	8.93	29.43	77.84	124.5
308.15 K	0.981	2.056	7.798	24.38	61.89	96.93
313.15 K	0.915	1.88	6.923	20.18	48.95	76.04
318.15 K	0.867	1.743	5.965	18.03	41.55	63.57

Nc1ccc(Br)cc1 + [Br-].[Br-].[Br-].[Sb+3]
323.15 K, 101 kPa
Conditions	viscosity [mPa·s]
x2 = 0.25	212.7
x2 = 0.333	1215
x2 = 0.4	12170
x2 = 0.45	20000
x2 = 0.48	20530
x2 = 0.5	20730
x2 = 0.52	19960
x2 = 0.55	11640
x2 = 0.6	4143
x2 = 0.75	239.8

OCC1CC1 + CC(C)CC(C)(C)C
viscosity [mPa·s], 101 kPa
Conditions	x1 = 0.0991	x1 = 0.1991	x1 = 0.3007	x1 = 0.4013	x1 = 0.5	x1 = 0.6004	x1 = 0.7007	x1 = 0.8004	x1 = 0.9002
293.15 K	0.535	0.592	0.676	0.801	0.97	1.214	1.561	2.068	2.803
298.15 K	0.505	0.556	0.63	0.74	0.886	1.098	1.398	1.831	2.459
303.15 K	0.476	0.522	0.587	0.684	0.811	0.997	1.257	1.632	2.168
308.15 K	0.45	0.491	0.549	0.634	0.746	0.908	1.136	1.46	1.921
313.15 K	0.425	0.462	0.514	0.59	0.688	0.831	1.029	1.31	1.709
318.15 K	0.396	0.431	0.478	0.546	0.633	0.759	0.934	1.181	1.527
323.15 K	0.38	0.411	0.454	0.514	0.59	0.701	0.854	1.071	1.372

CCCCC(CC)COP(=O)(O)OCC(CC)CCCC (stereo not drawn) + CCCC(=O)O
303.15 K, 101 kPa
Conditions	viscosity [mPa·s]
x1 = 0.0532	1.784
x1 = 0.1098	2.592
x1 = 0.1892	3.578
x1 = 0.2612	4.602
x1 = 0.3278	5.698
x1 = 0.4066	7.172
x1 = 0.5002	8.886
x1 = 0.6095	11.21
x1 = 0.6884	12.9
x1 = 0.7405	14.01
x1 = 0.8096	15.38
x1 = 0.8811	16.81
x1 = 0.9342	17.79
